Measurements: PubChem BioAssay AID330 (DTP/NCI, 2004)
Values joined by “and” are separate entries in the source; they are usually repeats but may differ in a detail not shown here. Equal entries are not always repeated. Inconclusive results and toxic doses are left out. How the source made its calls: active means survival T/C of 150% or more; inactive means T/C below 125% in these data.

Test system: P388 leukemia ip, CD2F1 mice, survival T/C
Test: NCI In Vivo Anticancer Drug Screen. Data for tumor model P388 Leukemia (intraperitoneal) in CD2F1 (CDF1) mice
Settings: endpoint: median survival time, higher = longer survival
How it was run: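 Mice carrying the transplanted tumor received test compound or vehicle. Survival was recorded in each group, and the value is the treated-group measurement divided by that of the vehicle-treated control group.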

[1] = dose: 50.0 mg/kg/injection, schedule: Q01DX009 (ip), vehicle: Klucel (hydroxypropylcellulose) (HPC)
[2] = dose: 100.0 mg/kg/injection, schedule: Q01DX009 (ip), vehicle: Klucel (hydroxypropylcellulose) (HPC)
[3] = dose: 200.0 mg/kg/injection, schedule: Q01DX009 (ip), vehicle: Klucel (hydroxypropylcellulose) (HPC)
[4] = dose: 50.0 mg/kg/injection, schedule: Q01DX005 (ip), vehicle: saline with Tween-80
[5] = dose: 12.5 mg/kg/injection, schedule: Q01DX005 (ip), vehicle: saline with Tween-80
[6] = dose: 25.0 mg/kg/injection, schedule: Q01DX005 (ip), vehicle: saline with Tween-80
[7] = dose: 50.0 mg/kg/injection, schedule: Q01DX005 (ip), vehicle: Klucel (hydroxypropylcellulose) (HPC)
[8] = dose: 100.0 mg/kg/injection, schedule: Q01DX005 (ip), vehicle: Klucel (hydroxypropylcellulose) (HPC)
[9] = dose: 200.0 mg/kg/injection, schedule: Q01DX005 (ip), vehicle: Klucel (hydroxypropylcellulose) (HPC)

Measured: T/C

O=C(O)C(Cc1ccccc1)NP(=S)(c1ccccc1)c1ccccc1 (centres undefined)
inactive: [1] 110 % of control | [2] 97 % of control | [3] 106 % of control

CNC(=O)OCc1ccc(NCCN(C)C)c2c(=O)c3cc(O)ccc3oc12
inactive: dose: 0.38 mg/kg/injection, schedule: Q01DX005 (ip), vehicle: Klucel (hydroxypropylcellulose) (HPC) 97 % of control | dose: 0.75 mg/kg/injection, schedule: Q01DX005 (ip), vehicle: Klucel (hydroxypropylcellulose) (HPC) 106 % of control | dose: 1.5 mg/kg/injection, schedule: Q01DX005 (ip), vehicle: Klucel (hydroxypropylcellulose) (HPC) 113 % of control | dose: 3.0 mg/kg/injection, schedule: Q01DX005 (ip), vehicle: Klucel (hydroxypropylcellulose) (HPC) 124 % of control | dose: 6.0 mg/kg/injection, schedule: Q01DX005 (ip), vehicle: Klucel (hydroxypropylcellulose) (HPC) 120 % of control

COc1ccc2ccccc2c1Cc1ccc(N(C)C)cc1Cl
inactive: [4] 92 % of control | dose: 100.0 mg/kg/injection, schedule: Q01DX005 (ip), vehicle: saline with Tween-80 95 % of control | dose: 200.0 mg/kg/injection, schedule: Q01DX005 (ip), vehicle: saline with Tween-80 90 % of control

CCC/C(=N\NC(=S)N(C)C)c1ccccn1
inactive: [5] 103 % of control | [6] 107 % of control | [4] 115 % of control and 117 % of control

CC(=O)Nc1cc(Cl)cc2c1-c1ccc(Cl)cc1C2N(C)C (centres undefined)
inactive: [7] 96 % of control | [8] 100 % of control | [9] 87 % of control

CNc1ncnc2c1ccn2C1OC(CO)C(O)C1O (centres undefined)
inactive: dose: 6.25 mg/kg/injection, schedule: Q01DX005 (ip), vehicle: saline with Tween-80 100 % of control | [5] 108 % of control | [6] 100 % of control

O=C(O)CC(OC(=O)CP(=O)(O)O)C(=O)O (centres undefined)
inactive: dose: 100.0 mg/kg/injection, schedule: Q04DX002 (ip), vehicle: saline 105 % of control | dose: 200.0 mg/kg/injection, schedule: Q04DX002 (ip), vehicle: saline 93 % of control | dose: 400.0 mg/kg/injection, schedule: Q04DX002 (ip), vehicle: saline 102 % of control

O=C(N/N=C/c1ccccn1)c1ccccc1[O-].O=C(N/N=C/c1ccccn1)c1ccccc1[O-].[Mn+2]
inactive: [7] 103 % of control | [8] 101 % of control | [9] 107 % of control

Cn1c(CO)cnc1-c1ccccc1
inactive: [1] 99 % of control | [2] 100 % of control | [3] 97 % of control

O=C(O)/C=C/c1c(-c2ccccc2)sc2ccccc2c1=O
inactive: dose: 100.0 mg/kg/injection, schedule: Q04DX002 (ip), vehicle: saline with Tween-80 93 % of control | dose: 200.0 mg/kg/injection, schedule: Q04DX002 (ip), vehicle: saline with Tween-80 97 % of control | dose: 400.0 mg/kg/injection, schedule: Q04DX002 (ip), vehicle: saline with Tween-80 97 % of control

CCOC(=O)c1cnc2c(cnn2CC)c1NN=C(C)C
inactive: dose: 66.0 mg/kg/injection, schedule: Q04DX003 (ip), vehicle: saline 109 % of control | dose: 100.0 mg/kg/injection, schedule: Q04DX003 (ip), vehicle: saline 109 % of control | dose: 150.0 mg/kg/injection, schedule: Q04DX003 (ip), vehicle: saline 104 % of control

COc1ccc(C2=C(Cl)C(=O)N(c3cccc(Cl)c3)C(=O)C2(Cl)Cl)cc1
inactive: dose: 100.0 mg/kg/injection, schedule: Q04DX002 (ip), vehicle: Klucel (hydroxypropylcellulose) (HPC) 100 % of control and 86 % of control (2×) | dose: 200.0 mg/kg/injection, schedule: Q04DX002 (ip), vehicle: Klucel (hydroxypropylcellulose) (HPC) 104 % of control and 91 % of control and 97 % of control | dose: 400.0 mg/kg/injection, schedule: Q04DX002 (ip), vehicle: Klucel (hydroxypropylcellulose) (HPC) 100 % of control and 122 % of control and 90 % of control | dose: 600.0 mg/kg/injection, schedule: Q04DX002 (ip), vehicle: Klucel (hydroxypropylcellulose) (HPC) 98 % of control and 109 % of control
